Assay results from patent US12304890B2, “R-type pyridyloxycarboxylic acid, salt and ester derivative thereof, and preparation method therefor, and herbicidal composition and application thereof” (Qingdao Kingagroot Chemical Compound Co., Ltd., priority 2018, dated 2025).

Tests used:
Format in all cases: in vivo
[1] = test system: Echinochloa crusgalli; assay: Post-emergence test experiment, Echinochloa crusgalli; conditions: for Echinochloa crusgalli, activity level (growth inhibition rate): 3 weeks; for Activity level (growth inhibition rate), Echinochloa crusgalli: 1000 g a.i./ha, 3 weeks in greenhouse, fresh weight inhibition
Procedure, shortened: (§1)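 Greenhouse post-emergence spray at 2-3 leaf stage (2 wk after sowing); acetone/tween-80 formulation, methyl oleate EC synergist 1.5 L/ha, water-diluted. Plants held 3 wk, then fresh weight inhibition rate read.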

[2] = test system: Semen Euphorbiae Lathyridis; assay: Post-emergence test experiment, Semen Euphorbiae Lathyridis; conditions: 3 weeks
Experimental: (§2) The above described growth inhibition rate is fresh weight inhibition rate.
(§3) Post-emergence test experiment: Monocotyledonous and dicotyledonous weed seeds and main crop seeds (i. e. wheat, corn, rice, soybean, cotton, oilseed, millet and sorghum.) were put into a plastic pot loaded with soil. Then covered with 0.5-2 cm soil, the seeds were allowed to grow in good greenhouse environment. The test plants were treated at 2-3 leaf stage 2 weeks after sowing. The test compounds of the invention were dissolved with acetone respectively, then added with tween-80, and using 1.5 liters per hectare of an emulsible concentrate of methyl oleate as a synergist, and diluted by certain amount of water to certain concentration. The solution was sprayed to the plants with a sprayer. Then the plants were cultured for 3 weeks in the greenhouse, and the experiment result of weed controlling effect was listed in tables 4-5.

[3] = test system: Monocotyledonous and dicotyledonous weed seeds and main crop seeds; assay: Post-emergence test experiment, other weeds and crops (Table 4, 1000 g a.i./ha); conditions: 3 weeks in greenhouse, fresh weight inhibition
Procedure, shortened: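 Growth inhibition is scored on fresh weight. Spray solutions were made in acetone with tween-80, diluted in water, plus 1.5 L/ha methyl oleate emulsible concentrate. Plants from greenhouse-grown weed and crop seeds were treated post-emergence at 2-3 leaves, 2 weeks after sowing.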

[4] = test system: rice; assay: Post-emergence test experiment, rice (crop selectivity); conditions: 3 weeks
Experimental: as §2, §3

[5] = test system: Digitaria sanguinalis; assay: Post-emergence test experiment, Digitaria sanguinalis; conditions: for Digitaria sanguinalis, activity level (growth inhibition rate): 3 weeks; for Activity level (growth inhibition rate), Digitaria sanguinalis: 1000 g a.i./ha, 3 weeks in greenhouse, fresh weight inhibition
Procedure, shortened: as §1

[6] = 200 g a.i./ha, weed resistant to ALS inhibitor and ACCe herbicides
[7] = 200 g a.i./ha, weed resistant to cyhalofop-butyl

## CCCCCCCCCCOC(=O)[C@@H](C)Oc1nc(F)c(Cl)c(N)c1Cl [Compound 2-195]
[1]; [6]
  Echinochloa crusgalli, activity level (growth inhibition rate): 4 (Level 4: the growth inhibition rate is equal to or greater than 60% and less than 85%)
[1]
  Activity level (growth inhibition rate), Echinochloa crusgalli: 5 (Level 5: the growth inhibition rate is greater than 85%)
[2]; [7]
  Semen Euphorbiae Lathyridis, activity level (growth inhibition rate): 5 (Level 5: the growth inhibition rate is greater than 85%)
[3]
  Activity level (growth inhibition rate), Abutilon theophrasti Medic.: 5 (Level 5: the growth inhibition rate is greater than 85%)
  Activity level (growth inhibition rate), Galium aparine: 5 (Level 5: the growth inhibition rate is greater than 85%)
  Activity level (growth inhibition rate), Monochoria Vaginalis: 5 (Level 5: the growth inhibition rate is greater than 85%)
[4]; 200 g a.i./ha
  rice, activity level (growth inhibition rate): 0 (Level 0: the growth inhibition rate is less than 5%)
[5]; [7]
  Digitaria sanguinalis, activity level (growth inhibition rate): 5 (Level 5: the growth inhibition rate is greater than 85%)
[5]
  Activity level (growth inhibition rate), Digitaria sanguinalis: 5 (Level 5: the growth inhibition rate is greater than 85%)

## CCCCCCCCCCCOC(=O)[C@@H](C)Oc1nc(F)c(Cl)c(N)c1Cl [Compound 2-215]
[1]; [6]
  Echinochloa crusgalli, activity level (growth inhibition rate): 4 (Level 4: the growth inhibition rate is equal to or greater than 60% and less than 85%)
[1]
  Activity level (growth inhibition rate), Echinochloa crusgalli: 5 (Level 5: the growth inhibition rate is greater than 85%)
[2]; [7]
  Semen Euphorbiae Lathyridis, activity level (growth inhibition rate): 5 (Level 5: the growth inhibition rate is greater than 85%)
[3]
  Activity level (growth inhibition rate), Abutilon theophrasti Medic.: 5 (Level 5: the growth inhibition rate is greater than 85%)
  Activity level (growth inhibition rate), Galium aparine: 5 (Level 5: the growth inhibition rate is greater than 85%)
  Activity level (growth inhibition rate), Monochoria Vaginalis: 5 (Level 5: the growth inhibition rate is greater than 85%)
[4]; 200 g a.i./ha
  rice, activity level (growth inhibition rate): 0 (Level 0: the growth inhibition rate is less than 5%)
[5]; [7]
  Digitaria sanguinalis, activity level (growth inhibition rate): 5 (Level 5: the growth inhibition rate is greater than 85%)
[5]
  Activity level (growth inhibition rate), Digitaria sanguinalis: 5 (Level 5: the growth inhibition rate is greater than 85%)

## CCCCCCCCCCCCOC(=O)[C@@H](C)Oc1nc(F)c(Cl)c(N)c1Cl [Compound 2-235]
[1]; [6]
  Echinochloa crusgalli, activity level (growth inhibition rate): 5 (Level 5: the growth inhibition rate is greater than 85%)
[1]
  Activity level (growth inhibition rate), Echinochloa crusgalli: 5 (Level 5: the growth inhibition rate is greater than 85%)
[2]; [7]
  Semen Euphorbiae Lathyridis, activity level (growth inhibition rate): 5 (Level 5: the growth inhibition rate is greater than 85%)
[3]
  Activity level (growth inhibition rate), Abutilon theophrasti Medic.: 5 (Level 5: the growth inhibition rate is greater than 85%)
  Activity level (growth inhibition rate), Galium aparine: 5 (Level 5: the growth inhibition rate is greater than 85%)
  Activity level (growth inhibition rate), Monochoria Vaginalis: 5 (Level 5: the growth inhibition rate is greater than 85%)
[4]; 200 g a.i./ha
  rice, activity level (growth inhibition rate): 0 (Level 0: the growth inhibition rate is less than 5%)
[5]; [7]
  Digitaria sanguinalis, activity level (growth inhibition rate): 5 (Level 5: the growth inhibition rate is greater than 85%)
[5]
  Activity level (growth inhibition rate), Digitaria sanguinalis: 5 (Level 5: the growth inhibition rate is greater than 85%)

## CCCCOCCOC(=O)C(C)Oc1nc(F)c(Cl)c(N)c1Cl (stereo not shown) [Compound 2-271]
[1]; [6]
  Echinochloa crusgalli, activity level (growth inhibition rate): 5 (Level 5: the growth inhibition rate is greater than 85%)
[1]
  Activity level (growth inhibition rate), Echinochloa crusgalli: 5 (Level 5: the growth inhibition rate is greater than 85%)
[2]; [7]
  Semen Euphorbiae Lathyridis, activity level (growth inhibition rate): 5 (Level 5: the growth inhibition rate is greater than 85%)
[3]
  Activity level (growth inhibition rate), Abutilon theophrasti Medic.: 5 (Level 5: the growth inhibition rate is greater than 85%)
  Activity level (growth inhibition rate), Galium aparine: 5 (Level 5: the growth inhibition rate is greater than 85%)
  Activity level (growth inhibition rate), Monochoria Vaginalis: 5 (Level 5: the growth inhibition rate is greater than 85%)
[4]; 200 g a.i./ha
  rice, activity level (growth inhibition rate): 0 (Level 0: the growth inhibition rate is less than 5%)
[5]; [7]
  Digitaria sanguinalis, activity level (growth inhibition rate): 5 (Level 5: the growth inhibition rate is greater than 85%)
[5]
  Activity level (growth inhibition rate), Digitaria sanguinalis: 5 (Level 5: the growth inhibition rate is greater than 85%)

## C[C@@H](Oc1nc(F)c(Cl)c(N)c1Cl)C(=O)OCCCC(F)(F)F [Compound 2-280]
[1]; [6]
  Echinochloa crusgalli, activity level (growth inhibition rate): 5 (Level 5: the growth inhibition rate is greater than 85%)
[1]
  Activity level (growth inhibition rate), Echinochloa crusgalli: 5 (Level 5: the growth inhibition rate is greater than 85%)
[2]; [7]
  Semen Euphorbiae Lathyridis, activity level (growth inhibition rate): 5 (Level 5: the growth inhibition rate is greater than 85%)
[3]
  Activity level (growth inhibition rate), Abutilon theophrasti Medic.: 5 (Level 5: the growth inhibition rate is greater than 85%)
  Activity level (growth inhibition rate), Galium aparine: 5 (Level 5: the growth inhibition rate is greater than 85%)
  Activity level (growth inhibition rate), Monochoria Vaginalis: 5 (Level 5: the growth inhibition rate is greater than 85%)
[4]; 200 g a.i./ha
  rice, activity level (growth inhibition rate): 0 (Level 0: the growth inhibition rate is less than 5%)
[5]; [7]
  Digitaria sanguinalis, activity level (growth inhibition rate): 5 (Level 5: the growth inhibition rate is greater than 85%)
[5]
  Activity level (growth inhibition rate), Digitaria sanguinalis: 5 (Level 5: the growth inhibition rate is greater than 85%)

## CC(Oc1nc(F)c(Cl)c(N)c1Cl)C(=O)OCCN(C)C (stereo not shown) [Compound 2-283]
[1]; [6]
  Echinochloa crusgalli, activity level (growth inhibition rate): 5 (Level 5: the growth inhibition rate is greater than 85%)
[1]
  Activity level (growth inhibition rate), Echinochloa crusgalli: 5 (Level 5: the growth inhibition rate is greater than 85%)
[2]; [7]
  Semen Euphorbiae Lathyridis, activity level (growth inhibition rate): 5 (Level 5: the growth inhibition rate is greater than 85%)
[3]
  Activity level (growth inhibition rate), Abutilon theophrasti Medic.: 5 (Level 5: the growth inhibition rate is greater than 85%)
  Activity level (growth inhibition rate), Galium aparine: 5 (Level 5: the growth inhibition rate is greater than 85%)
  Activity level (growth inhibition rate), Monochoria Vaginalis: 5 (Level 5: the growth inhibition rate is greater than 85%)
[4]; 200 g a.i./ha
  rice, activity level (growth inhibition rate): 0 (Level 0: the growth inhibition rate is less than 5%)
[5]; [7]
  Digitaria sanguinalis, activity level (growth inhibition rate): 5 (Level 5: the growth inhibition rate is greater than 85%)
[5]
  Activity level (growth inhibition rate), Digitaria sanguinalis: 5 (Level 5: the growth inhibition rate is greater than 85%)

## CC(C)=NOCCOC(=O)C(C)Oc1nc(F)c(Cl)c(N)c1Cl (stereo not shown) [Compound 2-287]
[1]; [6]
  Echinochloa crusgalli, activity level (growth inhibition rate): 5 (Level 5: the growth inhibition rate is greater than 85%)
[1]
  Activity level (growth inhibition rate), Echinochloa crusgalli: 5 (Level 5: the growth inhibition rate is greater than 85%)
[2]; [7]
  Semen Euphorbiae Lathyridis, activity level (growth inhibition rate): 5 (Level 5: the growth inhibition rate is greater than 85%)
[3]
  Activity level (growth inhibition rate), Abutilon theophrasti Medic.: 5 (Level 5: the growth inhibition rate is greater than 85%)
  Activity level (growth inhibition rate), Galium aparine: 5 (Level 5: the growth inhibition rate is greater than 85%)
  Activity level (growth inhibition rate), Monochoria Vaginalis: 5 (Level 5: the growth inhibition rate is greater than 85%)
[4]; 200 g a.i./ha
  rice, activity level (growth inhibition rate): 0 (Level 0: the growth inhibition rate is less than 5%)
[5]; [7]
  Digitaria sanguinalis, activity level (growth inhibition rate): 5 (Level 5: the growth inhibition rate is greater than 85%)
[5]
  Activity level (growth inhibition rate), Digitaria sanguinalis: 5 (Level 5: the growth inhibition rate is greater than 85%)

## CC(Oc1nc(F)c(Cl)c(N)c1Cl)C(=O)OCC1CCCO1 (stereo not shown) [Compound 2-298]
[1]; 100 g a.i./ha, resistant weed
  Echinochloa crusgalli, activity level (growth inhibition rate): 4 (Level 4: the growth inhibition rate is equal to or greater than 60% and less than 85%)
[1]; [6]
  Echinochloa crusgalli, activity level (growth inhibition rate): 5 (Level 5: the growth inhibition rate is greater than 85%)
[1]; 400 g a.i./ha, resistant weed
  Echinochloa crusgalli, activity level (growth inhibition rate): 5 (Level 5: the growth inhibition rate is greater than 85%)
[1]
  Activity level (growth inhibition rate), Echinochloa crusgalli: 5 (Level 5: the growth inhibition rate is greater than 85%)
[2]; 100 g a.i./ha, resistant weed
  Semen Euphorbiae Lathyridis, activity level (growth inhibition rate): 5 (Level 5: the growth inhibition rate is greater than 85%)
[2]; [7]
  Semen Euphorbiae Lathyridis, activity level (growth inhibition rate): 5 (Level 5: the growth inhibition rate is greater than 85%)
[2]; 400 g a.i./ha, resistant weed
  Semen Euphorbiae Lathyridis, activity level (growth inhibition rate): 5 (Level 5: the growth inhibition rate is greater than 85%)
[3]
  Activity level (growth inhibition rate), Abutilon theophrasti Medic.: 5 (Level 5: the growth inhibition rate is greater than 85%)
  Activity level (growth inhibition rate), Galium aparine: 5 (Level 5: the growth inhibition rate is greater than 85%)
  Activity level (growth inhibition rate), Monochoria Vaginalis: 5 (Level 5: the growth inhibition rate is greater than 85%)
[4]; 100 g a.i./ha
  rice, activity level (growth inhibition rate): 0 (Level 0: the growth inhibition rate is less than 5%)
[4]; 400 g a.i./ha
  rice, activity level (growth inhibition rate): 1 (Level 1: the growth inhibition rate is equal to or greater than 5% and less than 20%)
[5]; 100 g a.i./ha, resistant weed
  Digitaria sanguinalis, activity level (growth inhibition rate): 5 (Level 5: the growth inhibition rate is greater than 85%)
[5]; [7]
  Digitaria sanguinalis, activity level (growth inhibition rate): 5 (Level 5: the growth inhibition rate is greater than 85%)
[5]; 400 g a.i./ha, resistant weed
  Digitaria sanguinalis, activity level (growth inhibition rate): 5 (Level 5: the growth inhibition rate is greater than 85%)
[5]
  Activity level (growth inhibition rate), Digitaria sanguinalis: 5 (Level 5: the growth inhibition rate is greater than 85%)
